Columns and labels:
[1] = system: S. aureus Newman; assay: Bliss interaction score (quartile over a dose matrix) (fitness difference); higher = more antagonism (negative = synergy)
In short: (§1)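 Fitness here means normalised growth, inferred for single drugs from the combination data. Growth was OD595 at entry into stationary phase, divided by the plate's robust no-drug mean and capped at 1. The Bliss score is observed minus expected fitness, with the expectation being the product, and its quartiles span technical, biological and donor/recipient replicates.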

[2] = system: B. subtilis 168; assay: as above
In short: as §1

[3] = system: S. pneumoniae D39V; assay: as above
In short: as §1

[4] = system: S. aureus DSM 20231; assay: as above
In short: as §1

[5] = system: B. subtilis 168; assay: fitness (endpoint OD595 vs no drug) (fraction); higher = more growth
In short: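 With the first reading as background, OD595 was measured every 30 min for 14 h in 384-well plates kept at 37 °C and inoculated at OD595 0.01. TSB, LB Lennox or CY was the medium. Fitness is the optical density at the transition into stationary phase divided by the robust mean of no-drug control wells, with a cap of 1.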
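Wherever Bliss interaction score (quartile over a dose matrix) is given: first quartile when negative (synergy) and third quartile when positive (antagonism).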
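Wherever fitness (endpoint OD595 vs no drug) is given: OD595 on entry to stationary phase over no-drug wells; at most 1.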

Structure (SMILES): CCC[C@@H]1C[C@@H](C(=O)N[C@@H]([C@H]2O[C@H](SC)[C@H](O)[C@@H](O)[C@H]2O)[C@@H](C)O)N(C)C1 [Lincomycin] + CO[C@@H]1[C@@H](OC(N)=O)[C@@H](O)[C@H](Oc2ccc3c(O)c(NC(=O)c4ccc(O)c(CC=C(C)C)c4)c(=O)oc3c2C)OC1(C)C [Novobiocin]
- Bliss interaction score [1]: 0.191
- Bliss interaction score [2]: -0.0587
- Bliss interaction score [3]: -0.0884
- Bliss interaction score [4]: 0.104
- fitness ([5]; first compound 0.1 µg/mL, partner 0.0125 µg/mL): 0.889
- fitness ([5]; first compound 0.1 µg/mL, partner 0.025 µg/mL): 0.879
- fitness ([5]; first compound 0.1 µg/mL, partner 0.05 µg/mL): 0.905
- fitness ([5]; first compound 0.1 µg/mL, partner 0.1 µg/mL, one replicate): ≥ 1
- fitness ([5]; first compound 0.1 µg/mL, partner 0.2 µg/mL, one replicate): 0.991
- fitness ([5]; first compound 0.2 µg/mL, partner 0.0125 µg/mL): 0.971
- fitness ([5]; first compound 0.2 µg/mL, partner 0.025 µg/mL): 0.894
- fitness ([5]; first compound 0.2 µg/mL, partner 0.05 µg/mL): 0.932
- fitness ([5]; first compound 0.2 µg/mL, partner 0.1 µg/mL, one replicate): 0.995
- fitness ([5]; first compound 0.2 µg/mL, partner 0.2 µg/mL, one replicate): 0.956
- fitness ([5]; first compound 0.4 µg/mL, partner 0.0125 µg/mL): 0.899
- fitness ([5]; first compound 0.4 µg/mL, partner 0.025 µg/mL): 0.845
- fitness ([5]; first compound 0.4 µg/mL, partner 0.05 µg/mL): 0.902
- fitness ([5]; first compound 0.4 µg/mL, partner 0.1 µg/mL, one replicate): 0.976
- fitness ([5]; first compound 0.4 µg/mL, partner 0.125 µg/mL, one replicate): 0.836
- fitness ([5]; first compound 0.4 µg/mL, partner 0.2 µg/mL, one replicate): ≥ 1
- fitness ([5]; first compound 0.4 µg/mL, partner 0.25 µg/mL, one replicate): 0.809
- fitness ([5]; first compound 0.4 µg/mL, partner 0.5 µg/mL, one replicate): 0.569
- fitness ([5]; first compound 0.8 µg/mL, partner 0.125 µg/mL, one replicate): 0.883
- fitness ([5]; first compound 0.8 µg/mL, partner 0.25 µg/mL, one replicate): 0.848
- fitness ([5]; first compound 0.8 µg/mL, partner 0.5 µg/mL, one replicate): 0.563
- fitness ([5]; first compound 1.6 µg/mL, partner 0.125 µg/mL, one replicate): 0.88
- fitness ([5]; first compound 1.6 µg/mL, partner 0.25 µg/mL, one replicate): 0.819
- fitness ([5]; first compound 1.6 µg/mL, partner 0.5 µg/mL, one replicate): 0.594

Structure (SMILES): COc1c(N2C[C@@H]3CCCN[C@@H]3C2)c(F)cc2c(=O)c(C(=O)O)cn(C3CC3)c12 [Moxifloxacin] + CO[C@@H]1[C@@H](OC(N)=O)[C@@H](O)[C@H](Oc2ccc3c(O)c(NC(=O)c4ccc(O)c(CC=C(C)C)c4)c(=O)oc3c2C)OC1(C)C [Novobiocin]
- Bliss interaction score [1]: -0.113
- Bliss interaction score [2]: -0.0346
- Bliss interaction score [3]: 0.0943
- Bliss interaction score [4]: -0.0723
- fitness ([5]; first compound 0.0312 µg/mL, partner 0.05 µg/mL): 0.0425
- fitness ([5]; first compound 0.0312 µg/mL, partner 0.1 µg/mL): 0.0335
- fitness ([5]; first compound 0.0312 µg/mL, partner 0.125 µg/mL, one replicate): 0.0427
- fitness ([5]; first compound 0.0312 µg/mL, partner 0.2 µg/mL): 0.0331
- fitness ([5]; first compound 0.0312 µg/mL, partner 0.25 µg/mL, one replicate): 0.0377
- fitness ([5]; first compound 0.0312 µg/mL, partner 0.5 µg/mL, one replicate): 0.0342
- fitness ([5]; first compound 0.0625 µg/mL, partner 0.05 µg/mL): 0.0373
- fitness ([5]; first compound 0.0625 µg/mL, partner 0.1 µg/mL): 0.0227
- fitness ([5]; first compound 0.0625 µg/mL, partner 0.125 µg/mL, one replicate): 0.0166
- fitness ([5]; first compound 0.0625 µg/mL, partner 0.2 µg/mL): 0.0211
- fitness ([5]; first compound 0.0625 µg/mL, partner 0.25 µg/mL, one replicate): 0.0432
- fitness ([5]; first compound 0.0625 µg/mL, partner 0.5 µg/mL, one replicate): 0.0161
- fitness ([5]; first compound 0.125 µg/mL, partner 0.05 µg/mL): 0.0299
- fitness ([5]; first compound 0.125 µg/mL, partner 0.1 µg/mL): 0.0176
- fitness ([5]; first compound 0.125 µg/mL, partner 0.125 µg/mL, one replicate): 0.0119
- fitness ([5]; first compound 0.125 µg/mL, partner 0.2 µg/mL): 0.0159
- fitness ([5]; first compound 0.125 µg/mL, partner 0.25 µg/mL, one replicate): 0.0101
- fitness ([5]; first compound 0.125 µg/mL, partner 0.5 µg/mL, one replicate): 0.011
- fitness ([5]; first compound 2 µg/mL, partner 0.0125 µg/mL): 0.0294
- fitness ([5]; first compound 2 µg/mL, partner 0.025 µg/mL): 0.016
- fitness ([5]; first compound 2 µg/mL, partner 0.05 µg/mL): 0.0168
- fitness ([5]; first compound 4 µg/mL, partner 0.0125 µg/mL): 0.0275
- fitness ([5]; first compound 4 µg/mL, partner 0.025 µg/mL): 0.0146
- fitness ([5]; first compound 4 µg/mL, partner 0.05 µg/mL): 0.0053
- fitness ([5]; first compound 8 µg/mL, partner 0.0125 µg/mL): 0.0124
- fitness ([5]; first compound 8 µg/mL, partner 0.025 µg/mL): 0.0125
- fitness ([5]; first compound 8 µg/mL, partner 0.05 µg/mL): 0.0129

From the supplement of paper PMC10627819
